# Measured values taken from US7087766B2, “Reagents for the quantitation of active oxygen” (Daiichi Pure Chemicals Co., Ltd., priority 2000, dated 2006).
# Entries after “also recorded” stand apart in the source; their conditions may differ.
# Columns and labels:
# [1] = Autoxidation under a fluorescent lamp, fluorescence intensity; assay type: physicochemical; conditions: for changes in fluorescence intensity between before and after treatment, Autoxidation: 10 μM probe, 100 mM sodium phosphate buffer pH 7.4, just under a fluorescent lamp for 2 hours and 30 minutes; for autoxidation (in words): condition f of Table 1
# Method: (§1) The excitation spectrum and the fluorescence spectrum of the 10 μM ss-3F solution were measured using a fluorophotometer F4500 (manufactured by Hitachi, Ltd.). Slit width was 2.5 nm for both the excitation spectrum and the fluorescence spectrum, and the photomultiplier voltage was 950 V. Measurement was carried out at the excitation wavelength of 490 nm and the fluorescence wavelength of 510 nm unless otherwise specified.
# (§2) The compounds of the present invention, ss-1F, and ss-3F were tested. DCFH (2′,7′-dichlorodihydrofluorescein) was used as a control which was produced by hydrolyzing DCFH-DA (2′,7′-dichlorodihydrofluorescein diacetate; Molecular Probes, D-399) as a commercially available agent for detecting reactive oxygen species. DCFH-DA was hydrolyzed in accordance with the method by Hempel et al. (Stephen L. Hempel et al., Free Radical Biology & Medicine, 27, 146–159, 1999) under an alkali condition to obtain DCFH. […] The 10 μM DCFH solution was used for the test immediately after the preparation. […] Each of ss-1F, ss-3F, and DCFH was treated under conditions “a” to “f” for 30 minutes (2 hours and 30 minutes only for “f”) and changes in fluorescence intensity between before and after treatment were measured. The fluorescence intensity was measured under the same conditions as those in Example 4.
# [2] = Reactivity with nitrogen monoxide (NOC13), fluorescence intensity; conditions: 10 μM probe, 100 mM sodium phosphate buffer pH 7.4; NOC13 (100 μM); 30 minutes
# Method: as §1, §2
# [3] = Reactivity with singlet oxygen (EP-1 naphthalene endoperoxide system), fluorescence intensity; conditions: for changes in fluorescence intensity between before and after treatment, Singlet oxygen: 10 μM probe, 100 mM sodium phosphate buffer pH 7.4, EP-1 (100 μM), 30 minutes
# Method: as §1
# Subsequently, in order to investigate the reaction between ss-3F and singlet oxygen, a solution of EP-1 (a singlet oxygen generation system, i.e., the naphthalene endoperoxide compound; Saito, I, .et al., J. Am. Chem. Soc., 107, pp. 6329–6334, 1985) in dimethylformamide (DMF) was added to the 10 μM ss-3F solution to final concentrations of 1 mM, 2 mM, and 5 mM, and changes in fluorescence intensity with time was measured (EP-1 system). The temperature of the solution at this time was at 37° C. The excitation spectrum and the fluorescence spectrum of the solution after the completion of the reaction were measured under the same conditions as described above. […] Also in FIG. 3, generation of fluorescence was observed, and it was verified that ss-3F generated fluorescence upon reaction with singlet oxygen.
# (§3) The solutions described below were analyzed by HPLC. The absorbance at 460 nm was measured using XTerra™RP18 5 μm (4.6×250 mm) as a column and an aqueous solution of acetonitrile/0.1M NaHCO3=1/1 as an eluate with an elution rate of 1 ml/min. • (A) the 10 μM ss-3F solution • (B) a reaction solution prepared by adding EP-1 to the 10 μM ss-3F solution so as to give a final concentration of 5 mM and reacting at 37° C. for 8 hours • (C) a solution prepared by adding hydrogen peroxide to the 10 μM ss-3F solution so as to give a final concentration of 1 mM, and further adding ferrous perchlorate so as to give a final concentration of 500 μM, and then allowing to stand at room temperature for about 3 hours • (D) a 1 μM fluorescein solution
# (§4) A fluorescence spectrum of ss-3 obtained in Example 1 was measured under the same conditions as those in 1) of Example 4, except that the excitation wavelength was at 370 nm and the fluorescence wavelength was at 450 nm. The result obtained in the absence of EP-1 was shown in FIG. 7, and the result of fluorescence spectrum of the solution after the completion of the reaction with EP-1 was shown in FIG. 8.
# as §2
# [4] = Reactivity with hydrogen peroxide, fluorescence intensity; conditions: for changes in fluorescence intensity between before and after treatment, Hydrogen peroxide: 10 μM probe, 100 mM sodium phosphate buffer pH 7.4, Hydrogen peroxide (1 mM), 30 minutes; for reaction with hydrogen peroxide per se (in words): result of Example 6
# Method: as §1, §2
# [5] = Reactivity with superoxide (KO2), fluorescence intensity; conditions: 10 μM probe, 100 mM sodium phosphate buffer pH 7.4; KO2 (100 μM); 30 minutes
# Method: as §1, §2
# [6] = Reactivity with hydroxyl radical (Fenton system: hydrogen peroxide and ferrous perchlorate), fluorescence intensity; conditions: for changes in fluorescence intensity between before and after treatment, Hydroxyl radical: 10 μM probe, 100 mM sodium phosphate buffer pH 7.4, Iron(II) perchlorate (100 μM) and hydrogen peroxide (1 mM), 30 minutes, ex 490 nm/em 510 nm; for reactivity to hydroxyl radical (in words): condition a of Table 1
# Method: as §1
# Further, to investigate the reaction between ss-3F and hydroxyl radical, hydrogen peroxide was added to the 10 μM ss-3F solution to a final concentration of 1 mM, and then the mixture was added with ferrous perchlorate to a final concentration of 100 μM for each addition (5 times in total) to measure changes in fluorescence intensity with time (Fenton system).
# as §3, §2
# [7] = tested on: horseradish peroxidase; assay: Specific detection of peroxidase activity (HRP/H2O2), fluorescence spectrum; assay type: biochemical; conditions: 10 μM probe, horseradish peroxidase 0.2 μM, hydrogen peroxide 0 to 5.0 μM, pH 7.4; fluorescence wavelength 515 nm
# Method: A 100 mM phosphate buffer (pH 7.4) of horseradish peroxidase was added to the resulting solution of ss-1F or ss-3F to a final concentration of 0.2 μM, and then hydrogen peroxide was added to final concentrations of 0, 0.01, 0.05, 0.1, 0.5, 1.0, 2.0, and 5.0 μM, and the fluorescence spectrum was immediately measured. The fluorescence spectrum was measured under the same conditions as those in 1) of Example 4, except that the fluorescence wavelength was at 515 nm.
# [8] = Excitation and fluorescence spectrum of the compound itself; assay type: physicochemical
# Method: as §1, §4
"fluorescence of the compound per se ([8]; 10 μM in 100 mM sodium phosphate buffer pH 7.4, excitation 490 nm, fluorescence 510 nm)","fluorescence of the compound itself ([8]; absence of EP-1, excitation 370 nm, fluorescence 450 nm)",SMILES,"changes in fluorescence intensity between before and after treatment, Autoxidation [1]",autoxidation (in words) [1],"changes in fluorescence intensity between before and after treatment, Nitrogen monoxide [2]","changes in fluorescence intensity between before and after treatment, Singlet oxygen [3]","changes in fluorescence intensity between before and after treatment, Hydrogen peroxide [4]","changes in fluorescence intensity between before and after treatment, Superoxide [5]","changes in fluorescence intensity between before and after treatment, Hydroxyl radical [6]",reactivity to hydroxyl radical (in words) [6],reaction with hydrogen peroxide per se (in words) [4],fluorescence intensity with HRP/H2O2 [7],"changes in fluorescence intensity with time on reaction with singlet oxygen ([3]; 10 μM solution, EP-1 1 mM, 2 mM, 5 mM, 37° C., ex 490 nm/em 510 nm)","changes in fluorescence intensity with time on reaction with hydroxyl radical ([6]; 10 μM solution, hydrogen peroxide 1 mM, ferrous perchlorate 100 μM per addition (5 times))","fluorescence after reaction with singlet oxygen ([3]; after completion of the reaction with EP-1, excitation 370 nm, fluorescence 450 nm)"
,,"O=C(O)c1ccccc1C1c2cc(Cl)c(O)cc2Oc2cc(O)c(Cl)cc21 [DCFH, 2′,7′-dichlorodihydrofluorescein, reference compound]",1.6 × 10^3,high,1.5 × 10^2,26,1.9 × 10^2,67,4.8 × 10^3,successfully reacted with hydroxyl radical,,,,,
,,O=C(O)c1ccccc1-c1c2ccc(=O)cc-2oc2cc(Oc3ccc(O)cc3)ccc12 [ss-1F],<1.0,completely free from autoxidation; also recorded: no autoxidation,6.0,4.8,1.8,8.3,3.3 × 10^2,high reactivity to hydroxyl radical,do not react with hydrogen peroxide,increase in fluorescence intensity in a concentration-dependent manner,,,
emits no fluorescence,,Nc1ccc(Oc2ccc3c(-c4ccccc4C(=O)O)c4ccc(=O)cc-4oc3c2)cc1 [ss-3F],<1.0,completely free from autoxidation; also recorded: no autoxidation,<1.0,8.7,<1.0,5.6,6.0 × 10^2,high reactivity to hydroxyl radical,do not react with hydrogen peroxide,increase in fluorescence intensity in a concentration-dependent manner,increase in fluorescence intensity was observed dependently on EP-1 concentrations as well as in time dependent manner,increase in fluorescence intensity was observed at each time of the addition of ferrous perchlorate,
,substantially non-fluorescent,Nc1ccc(Oc2ccc3ccc(=O)oc3c2)cc1 [ss-3],,,,,,,,,,,,,emits fluorescence upon reaction with singlet oxygen
